Where two headings read alike, the source gives them in different places. Marks after values point to notes of the source that are not given here.

Here are results for two compounds from patent publication US6369050B1, “Antibacterial agents” (Fujisawa Pharmaceutical Co., Ltd., priority 1998, dated 2002).

Test [1] relates to K. pneumoniae. In words: Checkerboard method MIC, K. pneumoniae (Test Example 1). The format is cell-based. The note with it: for MIC: Klebsiella pneumoniae, antibiotic used alone, read-out: MIC, single use; for MIC, combined use: CFIX and AMPC used combinedly. As for the experimental part: (§1) Checkerboard method (cf. Hideyo Yamaguchi: “Konnichi no Koseibusshitsu (Antibiotics of today)”, page 411, published by Nanzando)
(§2) The MIC of each antibiotic used singly and the MIC of each combination of antibiotics were determined by the standard method established by the Japan Society of Chemotherapy, using Mueller-Hinton agar medium (MHA, product of Difco) for M. catarrhalis and K. pneumoniae, 5% equine blood agar (MHA+5% equine blood) for S. pneumoniae, and MHA+5% equine blood (chocolate agar) for H. influenzae. A 100-fold dilution of an overnight culture of each bacterial strain was stamp-inoculated and, after 18 hours of incubation at 37° C. (in the case of S. pneumoniae and H. influenzae, in an atmosphere containing 5% carbon dioxide), the MIC was measured (in μg/ml)
(§3) The MIC's of two individual antibiotics and the MIC's of the two respective antibiotics used combinedly were determined by the checkerboard method and the fractional inhibitory concentration index (hereinafter, “FIC index”) was determined according to the equation shown below. [formula]
(§4) ao: MIC of antibiotic A used alone; b: MIC of antibiotic B used alone; a, b: MIC's of antibiotics A and B, respectively, when they are used combinedly.

Test [2] concerns penicillin G-resistant S. pneumoniae. In words: Checkerboard method MIC, penicillin G-resistant S. pneumoniae (Test Example 1). The note with it: for MIC: Streptococcus pneumoniae, antibiotic used alone, read-out: MIC, single use; for MIC, combined use: CFIX and AMPC used combinedly. It counts as cell-based. On the procedure: as §1, §2, §3, §4
Test [3] deals with K. pneumoniae 15004. Nature of the test: Mixed respiratory infection in mice, viable K. pneumoniae in the lung (Test Example 4). The format is in vivo. The note with it: oral, 2 days after infection. On the procedure: (§5) ICR strain male mice (4 weeks old, 5 animals per group) given cyclophosphamide (200 mg/kg, ip) 4 days prior to infection were nasally infected with S. pneumoniae FP1906 (2.0×10^7 cfu/mouse) and K. pneumoniae 15004 (5.5×10^3 cfu/mouse). Each drug was orally administered three times (3, 18 and 26 hours after infection) and, at 2 days after infection, viable cells in the lung were counted.

Test [4] relates to S. pneumoniae FP1906. Nature of the test: Mixed respiratory infection in mice, viable S. pneumoniae in the lung (Test Example 4). The note with it: oral, 2 days after infection. It counts as in vivo. As for the experimental part:
as §5

For `C=CC1=C(C(=O)O)N2C(=O)[C@@H](NC(=O)/C(=N\OCC(=O)O)c3csc(N)n3)[C@H]2SC1` [CFIX, Cefixime], the MIC (commonly the least concentration at which growth counts as inhibited) came out at 0.05 µg/mL in test [1] (strain 15004); 0.025 µg/mL in test [1] (strain 15021); 12.5 µg/mL in test [2] (strain FP1884); 6.25 µg/mL in test [2] (strain FP1885); 3.13 µg/mL in test [2] (strain FP1891); 12.5 µg/mL in test [2] (strain FP1906). The “MIC, combined use” value in test [1] (strain 15004) is “≦0.00313 μg/ml”; in test [1] (strain 15021) it was 0.0125 µg/mL; in test [2] (strain FP1884), 0.78 µg/mL; in test [2] (strain FP1885), 0.1 µg/mL; in test [2] (strain FP1891), 0.78 µg/mL; in test [2] (strain FP1906), 1.56 µg/mL. In addition, the “Viable cells in the lung (logarithm), K. pneumoniae” value amounted to 4.14 logarithm in test [3] (10 mg/kg three times) and 2.34 logarithm in test [3] (50 mg/kg three times). The entries for the “Viable cells in the lung (logarithm), S. pneumoniae” value in test [4] (10 mg/kg three times) and in test [4] (50 mg/kg three times) were 8.46^*# logarithm and 8.26^*# logarithm, respectively.

For the compound `CC1(C)S[C@@H]2[C@H](NC(=O)[C@H](N)c3ccc(O)cc3)C(=O)N2[C@H]1C(=O)O` [AMPC, amoxicillin], the MIC in test [1] (strain 15004) was 100 µg/mL; in test [1] (strain 15021) it was 25 µg/mL; in test [2] (strain FP1884), 0.2 µg/mL; in test [2] (strain FP1885), 0.78 µg/mL; in test [2] (strain FP1891) it was 0.39 µg/mL; in test [2] (strain FP1906), 0.76 µg/mL. In addition, the “MIC, combined use” value in test [1] (strain 15004) turned out to be 50 µg/mL; in test [2] (strain FP1884), 0.05 µg/mL; in test [2] (strain FP1885) it was 0.39 µg/mL; in test [2] (strain FP1891), 0.025 µg/mL; in test [2] (strain FP1906) it was 0.2 µg/mL. For the same compound, the “Viable cells in the lung (logarithm), K. pneumoniae” value in test [3] (10 mg/kg three times) is given as 9.32^*# logarithm; in test [3] (50 mg/kg three times), 9.38^*# logarithm. Moreover, the results for the “Viable cells in the lung (logarithm), S. pneumoniae” value in test [4] (10 mg/kg three times) and in test [4] (50 mg/kg three times) were 7.04 logarithm and 5.29^* logarithm, respectively.
